Measurements reported in patent publication US20080292619A1, “Pharmaceutical Composition Containing Meltrin Antagonist” (MOCHIDA PHARMACEUTICAL CO., LTD., priority 2004, published 2008).
In the oligonucleotide strings, read from the 5' end, every base follows the letter of its sugar. An asterisk marks phosphorothioate; unmarked linkages are phosphodiester. Other units and linkages are bracketed, terminal groups are in braces. A string of capitals states the bases alone. d = 2'-deoxy (DNA)

Tested on: human preadipocyte
Assay: Adipocyte proliferation and differentiation, neutral fat accumulation (Adipo Red)
Assay type: cell-based
Settings: antibody final concentration 5 μL/mL; 15 days; AdipoRed
Procedure: The differentiation medium was prepared by adding supplement kit PGM SingleQuots, #PT-9500, Lot.08101163 (Sanko Junyaku Co., Ltd.) to 100 mL of growth medium. 50 μL of the supernatant was removed from the 96 well plate prepared in Example 12, and 50 μL of the siRNA or the antisense oligonucleotide prepared in the differentiation medium was added, and incubation was conducted in a CO2 incubator for 5 days to 15 days.
The amount of neutral fat accumulated in the adipocyte was determined by fluorometry using Adipo Red stain.
After taking the 96 well plate out of the CO2 incubator, the plate was allowed to stand until it cooled to room temperature. The plate was centrifuged at 300 g (1200 rpm) for 10 minutes at room temperature to remove the medium. Next, the plate was gently washed with 200 μL/well of PBS (Sigma), and 200 μL/well of PBS was added to the well.
Next, 5 μL/well of Adipo Red Assay Reagent (Adipo Red, Cat. #PT-7009, Lot.3F0497, A Cambrex Company) was added, and the plate was allowed to stand at room temperature for at least 10 minutes to thereby stain the neutral fat that had accumulated in the adipocyte. The fluorescence intensity was measured in a fluorometer at an excitation wavelength of 485 nm and an emission wavelength of 535 nm to thereby determine the fat accumulation.
According to the method of Example 15, M82463 was added to the human preadipocyte incubation system at a concentration of 0.3 to 10 μg/mL so that the final concentration of the DMSO was 0.2%. As a control, a group having only the DMSO added to a final concentration of 0.2% was used.
After preparation of the antibody to the concentration of 0.100 mg/mL with physiological saline, 9 volumes of adipocyte differentiation medium was added to 1 volume of the antibody solution, and the solution was sterilized by filtering through a filter having a diameter of 0.22 μm (MILLEX-GV 0.22 μm Filter unit, 3slgv013SL, Lot. R2NN83622, MILLIPORE). […]

Substance: 2 (dC*dT*dG*dG*dT*dT*dA*dA*dT*dG*dG*dT*dT*dC*dA*dC*dA*dT*dC*dT) [compound 2]
- Suppressive effect: ++ (suppression by 50% or higher)
